In US20260151457A1, “Peptides and Fragments for Treating Diabetes and Associated Metabolic Diseases” (Betavive Ltd., priority 2024, published 2026):
Entries after “also recorded” stand apart in the source; their conditions may differ.

Assays:
db/db mice = assay: Serum insulin in db/db mice after long-term IGF-2 treatment; assay type: in vivo; settings: 12,000 μg/kg daily for 68 days, measured 6.5 weeks after end of treatment
Procedure: In this experiment, one group of db/db mice (labeled FA X1) was injected with 3000 μg/kg of IGF-2 once a day for 68 days, a second group of db/db mice (labeled FA X4) was injected with a daily dose of 12000 μg/kg of IGF-2 divided in two injections per day for 68 days, and a third group of db/db mice was injected with saline. Serum insulin levels were measured 6.5 weeks after the end of the 68 day treatment. Treatment with the 12,000 μg/kg daily dose increased serum insulin levels by about 50% with respect to the control.

STZ-treated mouse islets = assay: MTT viability of STZ-treated mouse islets; assay type: cell-based; settings: increasing concentrations
From the text: Yellow dye MTT is converted to a purple dye by mitochondrial reductase in viable cells. Therefore, the amount of purple dye present determined by measuring optical density of cells at 570 nm serves as a measurement of cell viability.

STZ-treated mice [1] = assay: Short term effects of a single IGF-2 injection on glucose and IGF-2 levels in STZ-treated mice; assay type: in vivo
Procedure: More specifically, the top panel illustrates the drop in glucose blood levels in three STZ-treated mice after receiving a 800 μg/kg/day dose of IGF-2 over a 240 minute time course. […] IGF-2 is part of a complex system comprising IGF-1 and IGF-2 along with binding proteins, proteases and other interacting molecules. A single 800 μg/kg dose of IGF-2 injected intraperitoneally lowers hyperglycemic blood glucose levels of 300-500 mg/dl to a normal level (100-200 mg/dL) for periods of over four hours. Normoglycemia is maintained while total serum IGF-2 is reduced to very low levels. […] Without being bound by this theory, it is believed that a slow release of IGF-2 from a serum complex can maintain normal blood glucose levels.

STZ-treated mice [2] = assay: Serum insulin and c-peptide levels in STZ-treated mice four weeks after IGF-2 treatment; assay type: in vivo; settings: four weeks post treatment
Procedure: (§1) Fasting blood glucose levels (mg/dL) were determined using the Accu-Chek Performa glucometer (Roche Diagnostics, Mannheim, Germany). After approximately two weeks of stable hyperglycemia, C57BL/6 STZ mice received exogenous injections of recombinant human IGF-2 (0.3-12 mg/kg/day injection) intraperitoneally for 5-10 consecutive days. During post-treatment follow-up period and upon termination, mice were tested for: fasting glucose, body weight, glucose tolerance test (IPGTT), serum C-peptide level, serum insulin level, and full blood and histological analysis (CBC, Chemistry, Insulin IHC and H&E).
C-peptide is a biomarker used to assess pancreatic beta cell function and is normally produced in equimolar amounts to endogenous insulin. Leighton et al., A Practical Review of C-Peptide Testing in Diabetes, Diabetes Ther. 2017 June; 8 (3): 475-487.

[3] = Safety/toxicity: pathology of blood samples and tissue samples from thirty organs; assay type: in vivo; settings: end of 10 days of treatment, 24 days after termination, and 100 days after termination of 30 days of treatment
C57BL/6 STZ mice [4] = assay: Fasting blood glucose in STZ-induced diabetic C57BL/6 mice treated with IGF-2; assay type: in vivo; settings: IGF-2 12,000 μg/kg daily on each of 12 consecutive days
β-MIN6 cells [5] = assay: Insulin secretion of β-MIN6 cells following glucose induction; assay type: cell-based, mouse; settings: IGF-2 5 nM, 20 nM, 80 nM, 1 week treatment
From the text: (§2) β-MIN6 cells serve as an in vitro model of mouse pancreatic islets. β-MIN6 cells were used as an in vitro model to measure the effects of treatment with IGF-2.

β-MIN6 cells [6] = assay: Cell count (proliferation) of β-MIN6 cells; assay type: cell-based, mouse; settings: 5 nM, 20 nM, 80 nM, 1 week treatment
From the text: as §2

Beta-TC-6 cells = assay: Insulin secretion assay using Beta-TC-6 cells; assay type: cell-based; settings: 2 hours, 500 mM of each peptide, Mouse Insulin ELISA
Procedure: To evaluate insulin secretion in response to peptide treatment, Beta-TC-6 cells were plated in 96-well culture plates at a density of 8×10^4 cells per well. After 48 hours of incubation, the cells were washed and preincubated in serum-free medium for 1 hour. Following this, cells were treated for 2 hours with 200 μl of serum-free medium supplemented with […] of each peptide. After the treatment period, the induction medium was collected and stored at −80° C. until analysis. Insulin levels in the collected medium were measured using the Mercodia Mouse Insulin ELISA Kit (#10-1247-01) according to the manufacturer's instructions. […] Results appear in FIG. 36.

C57BL/6 STZ mice [7] = assay: Fasting blood glucose in STZ-induced diabetic C57BL/6 mice treated with IGF-2; assay type: in vivo; settings: for Fasting glucose levels: individual mice per block
Procedure: C57BL/6 mice male 8-10 weeks old, housed under conventional conditions and allowed laboratory chow and water ad libitum, were used in the experiments described below in Examples 3-4. Within each experiment, animals were matched by age and weight (20-24 g) and randomly divided into groups to receive different treatments. Diabetes was induced by one or more doses of streptozotocin (STZ).
Briefly, animals received intraperitoneally (i.p.) 100 mg/kg (b.w.) STZ (Cayman Chemical, Ann Arbor, MI) dissolved in citrate buffer on pH 4.5 (this procedure was repeated if needed). Clinical diabetes was defined by hyperglycemia (blood glucose levels >300 mg/dl in fasted animals). Fasting blood glucose levels were measured three times per week and samples were taken from the tail tip after starvation for 6 hours throughout the experiment.
as §1

[8] = single 800 μg/kg dose injected intraperitoneally
[9] = average of four STZ mice, daily intraperitoneal 3000 μg/kg/day IGF-2

In the case of insulin-like growth factor 2 [IGF-2], the “Increase in serum insulin levels with respect to the control” value (db/db mice) is reported as “about 50%”, the “Mouse islet viability (MTT, optical density at 570 nm)” value (STZ-treated mouse islets) is reported as “increased in a dose dependent manner” and the “Free IGF-2 levels relative to total IGF-2” value (STZ-treated mice [1]; 800 μg/kg dose, 240 minute time course) is reported as “a small fraction of the total IGF-2 concentration”. The “Blood glucose level reached from hyperglycemic 300-500 mg/dl” value (STZ-treated mice [1]; [8]) was 100 to 200 mg/dL, the “Period of normal blood glucose level after a single dose” value (STZ-treated mice [1]; [8]) was “over four” and the “Increase in c-peptide levels” value (STZ-treated mice [2]; four STZ-treated mice) was 12 fold. For the same substance, the “Increase in serum insulin compared to STZ treated control mice” value (STZ-treated mice [2]; permanently cured mice) was 50%, the “Pathologies related to treatment in blood samples and tissue samples from thirty organs” value [3] was “No pathologies were identified” and the “Long-term improvements in blood glucose levels” value (C57BL/6 STZ mice [4]) was “long-term improvements in blood glucose levels were obtained”. For the same substance, the “Insulin secretion following glucose induction” value (β-MIN6 cells [5]) was “increases insulin secretion (following glucose induction) in a dose-dependent manner”, the “Cell count (cell proliferation)” value (β-MIN6 cells [6]) was “increases cell proliferation in a dose-dependent manner” and the “Insulin secretion compared to the control” value (Beta-TC-6 cells) was “enhanced insulin secretion compared to the control”. For the same substance, the Hypoglycemia (C57BL/6 STZ mice [7]; 10:1 ratio of dosages, between 3000 μg and 300 μg) was “did not cause hypoglycemia”, the “Fasting glucose levels after the ten day course of injections ended” value (C57BL/6 STZ mice [7]; STZ mice F3 and F4, IGF-2 800 μg/kg/day) was “around 400” and the Fasting glucose levels (C57BL/6 STZ mice [7]; STZ mice, IGF-2 300 μg/kg/day, initial plus ten additional doses) was “did not return to a normal range, and long-term results were not observed; also recorded: temporary drop in fasting glucose levels from days 10-25, but the long-term results were similar to the results for Mouse B5”. The Fasting glucose levels (C57BL/6 STZ mice [7]; STZ mice, IGF-2 800 μg/kg/day, day 0 and ten more times within ten days) was “returned to a normal range during the ten-day course of treatment with IGF-2, and remained in the normal range until the end of the experiment; also recorded: returned to a normal range during the ten-day course of treatment with IGF-2, and remained in the normal range until STZ was provided again”, the “Blood glucose levels remaining (full or almost full resolution)” value (C57BL/6 STZ mice [7]; STZ mice, IGF-2 800 μg/kg/day, half the mice (FIGS. 5A, 5B)) was ~200 mg/dL and the “Blood glucose levels remaining (partial improvement)” value (C57BL/6 STZ mice [7]; STZ mice, IGF-2 800 μg/kg/day, the remaining mice (FIGS. 6A, 6B)) was ~400 mg/dL. The Fasting glucose levels (C57BL/6 STZ mice [7]; STZ mice, IGF-2 3000 μg/kg/day, 10 day course) was “returned to a normal range during the ten-day course of treatment with IGF-2, and remained in the normal range until the end of the experiment; also recorded: returned to high levels after the 10 day course treatment with IGF-2 ended; also recorded: initially responded to treatment with a 3000 μg/kg/day dose of IGF-2 but were not permanently cured”, the “Long-term improvements in blood glucose levels” value (C57BL/6 STZ mice [7]; STZ mice, IGF-2 12,000 μg/kg daily on only 5 consecutive days) was “long-term improvements in blood glucose levels were not obtained” and the “Blood glucose level reached (normal range)” value (C57BL/6 STZ mice [7]; [9]) was 100 to 200 mg/dL. The “Time to reduce blood glucose to a normal range” value (C57BL/6 STZ mice [7]; [9]) was 3 to 5 days, the Hypoglycemia (C57BL/6 STZ mice [7]; even when the IGF-2 dose was increased to 12,000 μg/kg/day) was “Hypoglycemia was never observed” and the “Time post treatment that normal blood glucose levels are maintained” value (C57BL/6 STZ mice [7]; four STZ mice, 10 day course at 3000 μg/kg/day, no additional doses) was “at least 300 days”.
